Consider one compound from paper PMC2910749 (Chembiochem : a European journal of chemical biology, 2008).

Each structure is given as a SMILES string.

For this test, the target named is T1, human cytosolic β-glucosidase (Homo sapiens, UniProt Q9H227).
T1 sequence (Q9H227 1-469): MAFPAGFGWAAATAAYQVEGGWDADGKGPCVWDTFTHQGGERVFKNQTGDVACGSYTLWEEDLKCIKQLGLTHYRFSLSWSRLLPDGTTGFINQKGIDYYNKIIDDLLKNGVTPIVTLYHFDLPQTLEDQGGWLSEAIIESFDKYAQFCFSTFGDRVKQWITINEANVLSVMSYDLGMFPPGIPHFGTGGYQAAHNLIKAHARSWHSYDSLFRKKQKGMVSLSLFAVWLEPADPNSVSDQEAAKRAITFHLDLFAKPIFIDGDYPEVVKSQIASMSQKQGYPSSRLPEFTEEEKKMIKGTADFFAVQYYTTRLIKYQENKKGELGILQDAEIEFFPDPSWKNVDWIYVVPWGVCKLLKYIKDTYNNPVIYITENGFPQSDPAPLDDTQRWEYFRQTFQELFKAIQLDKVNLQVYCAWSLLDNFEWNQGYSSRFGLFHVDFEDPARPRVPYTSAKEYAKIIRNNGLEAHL
Put plainly: Glycosidase specificity: cytosolic. The class given is biochemical.

`O=C(Nc1ccncc1)c1ccc(Oc2cc(Cl)cc(Cl)c2)o1` [compound 2, 5-(3,5-dichlorophenoxy)-N-(4-pyridinyl)-2-furamide]: the “inhibition of neutral β-glucosidase” value was “virtually non-inhibitory”.
